Assay results from patent US20170152226A1, “FUNCTIONALISED AND SUBSTITUTED INDOLES AS ANTI-CANCER AGENTS” (Novogen Ltd., priority 2014, published 2017).
Where two headings read alike, the source gives them in different places.

Assays:
Type in all cases: cell-based
[1] = test system: total actin cytoskeleton in SK-N-SH neuroblastoma cells; experiment: Microfilament disruption assay, phalloidin staining; settings: 0-40 μM, 24 hours post treatment
Method: (§1) FIG. 1: Imaging and quantitation of actin filaments in SK-N-SH neuroblastoma cells treated with compound (A) 3504, (B) 3507 and (C) 3516. Cells were stained with 488-Atto-Phallodin and DAPI to visualize the actin filament bundles and the nucleus, respectively. Shown in the top panel is a representative grey scale immunofluorescent image from control (vehicle alone), 5 μM and 10 μM treated cells. […] The coloured lines indicate the detected actin filaments. Also shown is the quantitation of cell number, filament number/cell and filament number/cell area (μM^2). […]
(§2) The ability of compounds 3504, 3507 and 3516 to disrupt the total actin cytoskeleton (FIG. 1) and to specifically target Tpm3.1-containing actin filaments (FIG. 2) was assessed in vitro using the microfilament disruption assay.
(§3) Briefly, SK-N-SH neuroblastoma cells were seeded at 1800 cells/well in a 384 Perkin Elmer High Content Imaging “View” plate and left to plate down 24 hours prior to treatment. […] Images were then exported and changes in the organization and numbers of actin filaments within the cell were quantitated using a linear feature detection algorithm developed by the CSIRO (Vindin et al., 2014). […] It is these “ridge lines” that correspond to actin filament bundles and allow us to quantitate the number of filaments per cell.

[2] = test system: Tpm3.1-containing actin filaments in SK-N-SH neuroblastoma cells; experiment: Microfilament disruption assay, γ9d staining; settings: 0-40 μM, 24 hours post treatment
Method: as §1, with “FIG. 2:” for “FIG. 1:”, “with γ9d (sheep polycolonal, 1:100) followed by 488-conjugated secondary (1:1000)” for “with 488-Atto-Phallodin”, “the Tpm3.1 containing” for “the actin”
as §2, §3

A549 = experiment: Anti-proliferative activity, cell-titre luminescent viability assay; settings: Homo sapiens, read-out: IC50 Lung (NSLC) A549
Outline: (§4)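 Cells were seeded at pre-determined densities, cultured 24 hours at 37° C/5% CO2, then exposed 72 hours to compound at 0.03, 0.3, 3 and 30 μM or at 0.1, 0.3, 1, 3, 10 and 30 μM. Viability was read by cell-titre luminescence after 30 min, normalized to untreated control, and IC50 or EC50 derived.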

CaCo2 = experiment: as above; settings: Homo sapiens, read-out: IC50 Colorectal CaCo2
Outline: as §4

SK-Mel-28 = experiment: as above; settings: Homo sapiens, SK-MEL-28, 72 hours, read-out: IC50 Melanoma SK-Mel-28
Outline: as §4

DU145 = experiment: as above; settings: Homo sapiens, read-out: IC50 Prostate DU145
Outline: as §4

SK-N-SH = experiment: as above; settings: Homo sapiens, SK-N-SH, read-out: IC50 Neuroblastoma SK-N-SH
Outline: as §4

MDA-MB-231 = experiment: as above; settings: Homo sapiens, read-out: IC50 Breast MDA-MB-231
Outline: as §4

PC3 = experiment: as above; settings: Homo sapiens, read-out: IC50 Prostate PC3
Outline: as §4

IFN-γ = experiment: Inhibition of cytokine release from PBMCs (HTRF); settings: PBMC, human PBMCs, PMA and ionomycin stimulated
Method: (§5) The ability of compounds 3507, 3520, 3534 and 3538 to inhibit the release of cytokines TNF-α, IFN-γ, IL-6, IL-21, IL-17A and IL-23 was evaluated in vitro (Tables 4 and 5). Briefly, human peripheral blood mononuclear cells (PBMCs) were isolated from human peripheral blood by Histopaque density gradient centrifugation. The freshly isolated PBMCs were seeded at 50,000 cells/well in a 96-well half area plate. PBMCs were dosed with the test compounds (at 10 μM, 1 μM and 0.1 μM) and then incubated at 37° C. and 5% CO2 for 2 hours. To stimulate release of the cytokines IFN-γ, IL-21, IL-17A and IL-23, the PBMCs were treated with 50 ng/mL of phorbol 12-myristate 13-acetate (PMA) and 1 μg/mL of ionomycin and to stimulate the release of TNF-α and IL-6, PBMCs were treated with 100 ng/mL of lipopolysaccharide (LPS) from gram-negative bacteria. The PBMCs were then incubated at 37° C. and 5% CO2 for a further 6 hours and the cell supernatant was collected and a Homogenous Time Resolved Fluorescence (HTRF) assay was carried out following the manufacturer's instructions. Cytokine release from the PBMCs was captured using a Perkin Elmer ENVISION 2104 microplate reader set at 615 nm and 665 nm respectively.

IL-17A = experiment: Inhibition of cytokine release from PBMCs (HTRF); settings: PBMC, human PBMCs, PMA and ionomycin stimulated
Method: as §5

IL-23 = experiment: Inhibition of cytokine release from PBMCs (HTRF); settings: PBMC, human PBMCs, PMA and ionomycin stimulated
Method: as §5

IL-6 = experiment: Inhibition of cytokine release from PBMCs (HTRF); settings: PBMC, human PBMCs, LPS stimulated
Method: as §5

TNF-α = experiment: Inhibition of cytokine release from PBMCs (HTRF); settings: PBMC, human PBMCs, LPS stimulated
Method: as §5

IL-21 = experiment: Inhibition of cytokine release from PBMCs (HTRF); settings: PBMC, human PBMCs, PMA and ionomycin stimulated
Method: as §5

[3] = A549, 72 h, 0.1, 0.3, 1, 3, 10 and 30 μM, nonlinear regression sigmoidal dose-response (EC50)
[4] = Caco-2, 72 h, 0.1, 0.3, 1, 3, 10 and 30 μM, nonlinear regression sigmoidal dose-response (EC50)
[5] = 0.1, 0.3, 1, 3, 10 and 30 μM, nonlinear regression sigmoidal dose-response (EC50)
[6] = DU-145, 72 h, 0.1, 0.3, 1, 3, 10 and 30 μM, nonlinear regression sigmoidal dose-response (EC50)
[7] = 72 h, 0.1, 0.3, 1, 3, 10 and 30 μM, nonlinear regression sigmoidal dose-response (EC50)
[8] = MDA-MB-231, 72 h, 0.1, 0.3, 1, 3, 10 and 30 μM, nonlinear regression sigmoidal dose-response (EC50)
[9] = PC-3, 72 h, 0.1, 0.3, 1, 3, 10 and 30 μM, nonlinear regression sigmoidal dose-response (EC50)
[10] = A549, 72 h, 0.03, 0.3, 3 and 30 μM, linear regression of semi-log plots
[11] = Caco-2, 72 h, 0.03, 0.3, 3 and 30 μM, linear regression of semi-log plots
[12] = 0.03, 0.3, 3 and 30 μM, linear regression of semi-log plots
[13] = DU-145, 72 h, 0.03, 0.3, 3 and 30 μM, linear regression of semi-log plots
[14] = 72 h, 0.03, 0.3, 3 and 30 μM, linear regression of semi-log plots
[15] = MDA-MB-231, 72 h, 0.03, 0.3, 3 and 30 μM, linear regression of semi-log plots
[16] = PC-3, 72 h, 0.03, 0.3, 3 and 30 μM, linear regression of semi-log plots

| SMILES | IC50 (A549; [3]) | IC50 (CaCo2; [4]) | inhibition at 0.1 µM (IFN-γ) | inhibition at 1 µM (IFN-γ) | inhibition at 10 µM (IFN-γ) | inhibition at 0.1 µM (IL-17A) | inhibition at 1 µM (IL-17A) | inhibition at 10 µM (IL-17A) | inhibition at 0.1 µM (IL-23) | inhibition at 1 µM (IL-23) | inhibition at 10 µM (IL-23) | inhibition at 0.1 µM (IL-6) | inhibition at 1 µM (IL-6) | inhibition at 10 µM (IL-6) | inhibition at 0.1 µM (TNF-α) | inhibition at 1 µM (TNF-α) | inhibition at 10 µM (TNF-α) | inhibition at 0.1 µM (IL-21) | inhibition at 1 µM (IL-21) | inhibition at 10 µM (IL-21) | other results |
| --- | --- | --- | --- | --- | --- | --- | --- | --- | --- | --- | --- | --- | --- | --- | --- | --- | --- | --- | --- | --- | --- |
| Cc1c(C)n(CCCN2CCN(C)CC2)c2ccc(Cc3cccc(C(=O)N4CCN(CCc5cccc(F)c5)CC4)c3)cc12 [Compound 3504, (3-((2,3-dimethyl-1-(3-(4-methylpiperazin-1-yl)propyl)-1H-indol-5-yl)methyl)phenyl)(4-(3-fluorophenethyl)piperazin-1-yl)methanone] | 1600 nM | 1.8 µM |  |  |  |  |  |  |  |  |  |  |  |  |  |  |  |  |  |  | disruption of the total actin cytoskeleton [1]: in a dose-dependent manner; disruption of Tpm3.1-containing actin filaments [2]: in a dose-dependent manner; IC50 (SK-Mel-28; [5]): 1100 nM; IC50 (DU145; [6]): 1400 nM; IC50 (SK-N-SH; [7]): 1500 nM; IC50 (MDA-MB-231; [8]): 1500 nM; IC50 (PC3; [9]): 2000 nM |
| Cc1c(C)n(CCCN2CCN(C)CC2)c2ccc(Nc3ccc(C(=O)N4CCN(CCc5cccc(F)c5)CC4)cc3)cc12 [Compound 3534, (4-((2,3-dimethyl-1-(3-(4-methylpiperazin-1-yl)propyl)-1H-indol-5-yl)amino)phenyl)(4-(3-fluorophenethyl)piperazin-1-yl)methanone] |  |  | 23% | 39% | 85% | 1% | 1% | 12% | -5% | -1% | 20% | 13% | 21% | 48% | 2% | 5% | -12% | 0% | -8% | 11% | IC50 (A549; [10]): 1500 nM; IC50 (CaCo2; [11]): 3.2 µM; IC50 (SK-Mel-28; [12]): 1200 nM; IC50 (DU145; [13]): 1400 nM; IC50 (SK-N-SH; [14]): 1400 nM; IC50 (MDA-MB-231; [15]): 1600 nM; IC50 (PC3; [16]): 2800 nM |
| COc1ccc2cc(CCN3CCN(C(=O)c4cccc(Cc5ccc6c(c5)c(C)c(C)n6CCCN5CCN(C)CC5)c4)CC3)ccc2c1 [Compound 3538, (3-((2,3-dimethyl-1-(3-(4-methylpiperazin-1-yl)propyl)-1H-indol-5-yl)methyl)phenyl)(4-(2-(6-methoxynaphthalen-2-yl)ethyl)piperazin-1-yl)methanone] | 4300 nM | 5.7 µM | 24% | 58% | 86% | 21% | 42% | 86% | -19% | -20% | 30% | -13% | -13% | -10% | -10% | -4% | -7% | 1% | 8% | 11% | IC50 (SK-Mel-28; [5]): 3300 nM; IC50 (DU145; [6]): 4200 nM; IC50 (SK-N-SH; [7]): 4800 nM; IC50 (MDA-MB-231; [8]): 3600 nM; IC50 (PC3; [9]): 3900 nM |
| COc1ccc(CCN2CCN(C(=O)c3ccc(Cc4ccc5c(c4)c(C)c(C)n5CCCN4CCN(C)CC4)cc3)CC2)cc1 [Compound 3520, (4-((2,3-dimethyl-1-(3-(4-methylpiperazin-1-yl)propyl)-1H-indol-5-yl)methyl)phenyl)(4-(4-methoxyphenethyl)piperazin-1-yl)methanone] |  |  | 1% | 0% | 4% | -11% | -7% | 1% | -8% | -1% | 12% | -10% | -9% | 3% | -8% | -10% | -14% | -8% | -13% | -12% | IC50 (A549; [10]): 2400 nM; IC50 (CaCo2; [11]): 3.5 µM; IC50 (SK-Mel-28; [12]): 2500 nM; IC50 (DU145; [13]): 2700 nM; IC50 (SK-N-SH; [14]): 2300 nM; IC50 (MDA-MB-231; [15]): 2800 nM; IC50 (PC3; [16]): 2300 nM |
